# Test results as given in patent US20240246937A1 (MERCK SHARP & DOHME LLC, priority 2021, published 2024).
# Biological target: recombinant IL4I1 (Homo sapiens (Human), UniProt Q96RQ9)
# Assay: IL4I1 Enzymatic Assay (Amplex Red/HRP coupled fluorescence detection of H2O2)
# Assay type: biochemical
# Conditions: 240 min; recombinant IL4I1, four-hour pre-incubation with compound
# In short: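 Recombinant human IL4I1 (1 nM final) pre-incubated 4 h with compound at ambient temperature in 50 mM Hepes pH 7.0, 0.005% Tween20. Started with 1 mM each Phe/Tyr/Trp plus Amplex Red/HRP; H2O2-derived resorufin fluorescence read after 120 min; EC50 from ten-point 1:3 titration, four-parameter fit.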
# Sequence of recombinant IL4I1 (Q96RQ9 22-567): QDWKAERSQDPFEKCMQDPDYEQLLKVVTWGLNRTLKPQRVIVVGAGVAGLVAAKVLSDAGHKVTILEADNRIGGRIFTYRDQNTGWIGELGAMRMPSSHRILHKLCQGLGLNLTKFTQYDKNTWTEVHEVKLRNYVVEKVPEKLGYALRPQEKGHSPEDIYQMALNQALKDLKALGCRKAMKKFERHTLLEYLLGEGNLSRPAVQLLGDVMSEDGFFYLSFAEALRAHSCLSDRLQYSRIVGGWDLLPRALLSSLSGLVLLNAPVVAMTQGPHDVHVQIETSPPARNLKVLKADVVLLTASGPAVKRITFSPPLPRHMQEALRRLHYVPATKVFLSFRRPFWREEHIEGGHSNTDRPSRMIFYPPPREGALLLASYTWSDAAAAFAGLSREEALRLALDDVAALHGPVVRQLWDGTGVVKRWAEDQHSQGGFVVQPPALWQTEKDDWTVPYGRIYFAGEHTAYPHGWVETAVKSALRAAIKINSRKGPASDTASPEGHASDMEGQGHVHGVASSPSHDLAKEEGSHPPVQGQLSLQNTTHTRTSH
row,Compound,EC50
1,"O=c1c(=O)n(C2(CF)CC2)ccn1Cc1cc(-c2ccccn2)no1 [Example 225, 1-(1-(fluoromethyl)cyclopropyl)-4-((3-(pyridin-2-yl)isoxazol-5-yl)methyl)-1,4-dihydropyrazine-2,3-dione]",41 nM
2,"CC1(n2ccn(Cc3ccc(-c4cncs4)nn3)c(=O)c2=O)CC1 [Example 94, 1-(1-methylcyclopropyl)-4-((6-(thiazol-5-yl)pyridazin-3-yl)methyl)-1,4-dihydropyrazine-2,3-dione]",35 nM
3,"CC1(n2ccn(Cc3cn(-c4ccccn4)nn3)c(=O)c2=O)CC1 [Example 430, 1-(1-methylcyclopropyl)-4-((1-(pyridin-2-yl)-1H-1,2,3-triazol-4-yl)methyl)-1,4-dihydropyrazine-2,3-dione]",183 nM
4,"O=c1c(=O)n(C23CC(C2)C3)ccn1Cc1ccc(-n2nccn2)nc1 [Example 412, 1-((6-(2H-1,2,3-triazol-2-yl)pyridin-3-yl)methyl)-4-(bicyclo[1.1.1]pentan-1-yl)-1,4-dihydropyrazine-2,3-dione]",19 nM
5,"O=C1C(=O)N(C23CC(F)(C2)C3)CCN1Cc1ccc(-n2ccnn2)nn1 [Example 249, 1-((6-(1H-1,2,3-triazol-1-yl)pyridazin-3-yl)methyl)-4-(3-fluorobicyclo[1.1.1]pentan-1-yl)piperazine-2,3-dione]",148 nM
6,"O=C1C(=O)N(C23CC(C2)C3)CCN1CC12CC(c3ccccc3)(C1)C2(F)F [Example 191, 1-(bicyclo[1.1.1]pentan-1-yl)-4-((2,2-difluoro-3-phenylbicyclo[1.1.1]pentan-1-yl)methyl)piperazine-2,3-dione]",35 nM
7,"N#CC1(n2ccn(Cc3ccc(-n4nccn4)nn3)c(=O)c2=O)CC1 [Example 333, 1-(4-((6-(2H-1,2,3-triazol-2-yl)pyridazin-3-yl)methyl)-2,3-dioxo-3,4-dihydropyrazin-1(2H)-yl)cyclopropane-1-carbonitrile]",94 nM
8,"O=c1c(=O)n(C2(CF)CC2)ccn1Cc1ccc(-n2cccn2)cn1 [Example 218, 1-((5-(1H-pyrazol-1-yl)pyridin-2-yl)methyl)-4-(1-(fluoromethyl)cyclopropyl)-1,4-dihydropyrazine-2,3-dione]",56 nM
9,"O=c1c(=O)n(C2CCC2)ccn1Cc1ccc(-n2cccn2)nn1 [Example 329, 1-((6-(1H-pyrazol-1-yl)pyridazin-3-yl)methyl)-4-cyclobutyl-1,4-dihydropyrazine-2,3-dione]",15 nM
10,"O=C1C(=O)N(C23CC(C2)C3)CCN1Cc1cc(-c2ccc(F)cc2)on1 [Example 418, 1-(bicyclo[1.1.1]pentan-1-yl)-4-((5-(4-fluorophenyl)isoxazol-3-yl)methyl)piperazine-2,3-dione]",6 nM
11,"O=c1c(=O)n(C2CCCC2)ccn1Cc1ccc(-c2cccc(F)c2)nn1 [Example 59, 1-cyclopentyl-4-((6-(3-fluorophenyl)pyridazin-3-yl)methyl)-1,4-dihydropyrazine-2,3-dione]",5 nM
12,"O=c1c(=O)n(C2(CF)CC2)ccn1Cc1ccc(-c2cncs2)nn1 [Example 245, 1-(1-(fluoromethyl)cyclopropyl)-4-((6-(thiazol-5-yl)pyridazin-3-yl)methyl)-1,4-dihydropyrazine-2,3-dione]",43 nM
13,"N#CC1(n2ccn(Cc3ccc(-n4cccn4)nc3)c(=O)c2=O)CC1 [Example 389, 1-(4-((6-(1H-pyrazol-1-yl)pyridin-3-yl)methyl)-2,3-dioxo-3,4-dihydropyrazin-1(2H)-yl)cyclopropane-1-carbonitrile]",369 nM
14,"CC1(n2ccn(Cc3ccc(-c4ccccn4)nn3)c(=O)c2=O)CC1 [Example 87, 1-(1-methylcyclopropyl)-4-((6-(pyridin-2-yl)pyridazin-3-yl)methyl)-1,4-dihydropyrazine-2,3-dione]",87 nM
15,"O=c1c(=O)n(C23CC(C2)C3)ccn1Cc1cc(-c2nccs2)on1 [Example 187, 1-(bicyclo[1.1.1]pentan-1-yl)-4-((5-(thiazol-2-yl)isoxazol-3-yl)methyl)-1,4-dihydropyrazine-2,3-dione]",8 nM
16,"CC1(n2ccn(Cc3cc(-c4cccnc4)on3)c(=O)c2=O)CC1 [Example 209, 1-(1-methylcyclopropyl)-4-((5-(pyridin-3-yl)isoxazol-3-yl)methyl)-1,4-dihydropyrazine-2,3-dione]",26 nM

# Other lines, results leading:
row,EC50,Compound
1,98 nM,"O=C1C(=O)N(C2(c3ccncc3)CC2)CCN1Cc1nnc(-c2ccccc2)s1 [Example 304, 1-((5-phenyl-1,3,4-thiadiazol-2-yl)methyl)-4-(1-(pyridin-4-yl)cyclopropyl)piperazine-2,3-dione]"
2,43 nM,"O=C1C(=O)N(C2CCCC2)CCN1Cc1ccc(-c2cnco2)nn1 [Example 6, 1-cyclopentyl-4-((6-(oxazol-5-yl)pyridazin-3-yl)methyl)piperazine-2,3-dione]"
3,3 nM,"O=c1c(=O)n([C@H]2C[C@H]3C[C@H]3C2)ccn1Cc1nnc(-c2ccccc2)s1 [Example 39, 1-((cis)-bicyclo[3.1.0]hexan-3-yl)-4-((5-phenyl-1,3,4-thiadiazol-2-yl)methyl)-1,4-dihydropyrazine-2,3-dione]"
4,71 nM,"O=C1C(=O)N(C2CC(O)C2)CCN1Cc1ccc(-c2ccccc2F)nn1 (centres unmarked) [Example 434, 1-((6-(2-fluorophenyl)pyridazin-3-yl)methyl)-4-(3-hydroxycyclobutyl)piperazine-2,3-dione]"
5,8 nM,"O=c1c(=O)n(C2CCC2)ccn1Cc1cc(-c2ccccn2)on1 [Example 373, 1-cyclobutyl-4-((5-(pyridin-2-yl)isoxazol-3-yl)methyl)-1,4-dihydropyrazine-2,3-dione]"
6,63 nM,"CC12CC(N3CCN(Cc4nnc(-c5ccccc5)s4)C(=O)C3=O)(CO1)C2 [Example 296, 1-(1-methyl-2-oxabicyclo[2.1.1]hexan-4-yl)-4-((5-phenyl-1,3,4-thiadiazol-2-yl)methyl)piperazine-2,3-dione]"
7,8 nM,"O=c1c(=O)n(C2CCC2)ccn1Cc1nnc(-c2cccc(F)c2)s1 [Example 28, 1-cyclobutyl-4-((5-(3-fluorophenyl)-1,3,4-thiadiazol-2-yl)methyl)-1,4-dihydropyrazine-2,3-dione]"
8,19 nM,"CC1CN(Cc2ncc(-c3ccccc3)cn2)C(=O)C(=O)N1C1CCCC1 (single isomer, unassigned) [Example 341, (R or S)-4-cyclopentyl-5-methyl-1-((5-phenylpyrimidin-2-yl)methyl)piperazine-2,3-dione]"
9,35 nM,"O=C1C(=O)N(CC2CCC2)CCN1Cc1ncc(-c2ccccc2)cn1 [Example 281, 1-(cyclobutylmethyl)-4-((5-phenylpyrimidin-2-yl)methyl)piperazine-2,3-dione]"
10,138 nM,"O=C1C(=O)N(C2CCCC2)CCN1Cc1ncc(-n2nccn2)cn1 [Example 378, 1-((5-(2H-1,2,3-triazol-2-yl)pyrimidin-2-yl)methyl)-4-cyclopentylpiperazine-2,3-dione]"
11,7 nM,"O=c1c(=O)n(C23CC(C2)C3)ccn1Cc1cnc(-c2ccccc2F)cn1 [Example 75, 1-(bicyclo[1.1.1]pentan-1-yl)-4-((5-(2-fluorophenyl)pyrazin-2-yl)methyl)-1,4-dihydropyrazine-2,3-dione]"
12,4 nM,"O=C1C(=O)N([C@H]2C[C@H]3C[C@H]3C2)CCN1Cc1ccc(-c2ccccc2F)nn1 [Example 62, 1-((cis)-bicyclo[3.1.0]hexan-3-yl)-4-((6-(2-fluorophenyl)pyridazin-3-yl)methyl)piperazine-2,3-dione]"
13,8 nM,"O=C1C(=O)N(C2CC(F)C2)CCN1Cc1nnc(-c2ccccc2)s1 (centres unmarked) [Example 290, 1-(3-fluorocyclobutyl)-4-((5-phenyl-1,3,4-thiadiazol-2-yl)methyl)piperazine-2,3-dione]"
14,3 nM,"O=c1c(=O)n(C2CCC2)ccn1Cc1ccc(-c2cccc(F)c2)nn1 [Example 63, 1-cyclobutyl-4-((6-(3-fluorophenyl)pyridazin-3-yl)methyl)-1,4-dihydropyrazine-2,3-dione]"
15,7 nM,"O=C1C(=O)N(C2CCCC2)CCN1Cc1nnc(-c2cccc(F)c2)s1 [Example 8, 1-cyclopentyl-4-((5-(3-fluorophenyl)-1,3,4-thiadiazol-2-yl)methyl)piperazine-2,3-dione]"
16,16 nM,"O=C1C(=O)N([C@H]2C[C@H]3C[C@H]3C2)CCN1Cc1ncc(-c2ccccc2)cn1 [Example 278, 1-((cis)-bicyclo[3.1.0]hexan-3-yl)-4-((5-phenylpyrimidin-2-yl)methyl)piperazine-2,3-dione]"
17,16 nM,"O=C1C(=O)N([C@H]2C[C@@H](c3ccccc3)C2)CCN1Cc1ccc(-n2ccnn2)nn1 [Example 327, 1-((6-(1H-1,2,3-triazol-1-yl)pyridazin-3-yl)methyl)-4-((cis)-3-phenylcyclobutyl)piperazine-2,3-dione]"
18,2 nM,"O=c1c(=O)n(C2CCCC2)ccn1Cc1cc(-c2ccccc2F)no1 [Example 156, 1-cyclopentyl-4-((3-(2-fluorophenyl)isoxazol-5-yl)methyl)-1,4-dihydropyrazine-2,3-dione]"
19,22 nM,"CC(c1ncc(-c2ccccc2)cn1)N1CCN(C2CCCC2)C(=O)C1=O (single isomer, unassigned) [Example 133, (R or S)-1-cyclopentyl-4-(1-(5-phenylpyrimidin-2-yl)ethyl)piperazine-2,3-dione]"
20,33 nM,"O=C1C(=O)N(C2CCCC2)CCN1Cc1ccc(N2CCC(F)C2)nc1 (centres unmarked) [Example 393, 1-cyclopentyl-4-((6-(3-fluoropyrrolidin-1-yl)pyridin-3-yl)methyl)piperazine-2,3-dione]"
21,6 nM,"O=c1c(=O)n(C2CCC2)ccn1Cc1cc(-c2ccccc2)n[nH]1 [Example 168, 1-cyclobutyl-4-((3-phenyl-1H-pyrazol-5-yl)methyl)-1,4-dihydropyrazine-2,3-dione]"
22,30 nM,"CC1CCC1N1CCN(Cc2ncc(-c3ccccc3)cn2)C(=O)C1=O (centres unmarked) [Example 282, 1-(2-methylcyclobutyl)-4-((5-phenylpyrimidin-2-yl)methyl)piperazine-2,3-dione]"
